8 compounds from patent publication US20240417410A1, “TRICYCLIC COMPOUNDS FOR THE TREATMENT OF CANCER” (Hoffmann-La Roche Inc., priority 2023, published 2024) can be followed below.

One assay deals with AGS cells (KRAS G12D). In words: Cell viability assay (Cell Counting Kit-8, 3-day). The assay is classed as cell-based, human. The following applies: Homo sapiens, 72 h, 72 hrs incubation. The protocol: (§1) The purpose of this cellular assay was to determine the effects of test compounds on the proliferation of human cancer cell lines NCI-H358 (ATCC-CRL5807) cells, AGS (ATCC-CRL-1739) cells, SW620 (ATCC-CCL-227) over a 3-day treatment period by quantifying the amount of NADPH present at endpoint using Cell Counting Kit-8.
(§2) Cells were seeded at 5,000 cells/well (NCI-H358), 2,000 cells/well (AGS) 2,000 cells/well (SW620) in 96-well assay plates (Corning-3699) and incubated overnight. On the day of the assay, diluted compounds were then added in a final concentration of 0.5% DMSO. After 72 hrs incubation, a tenth of the volume of cell counting kit 8 (Dnjindo-CK04) was added into each well. Read the signal (OD450 minus OD650) using EnVision after 2 hrs incubation. IC50 was determined by fitting a 4-parameter sigmoidal concentration response model.
(In general: Formazan colour is commonly taken as a measure of viable cells.)

Assay [1] concerns NCI-H358 cells (KRAS G12C). In words: Cell viability assay (Cell Counting Kit-8, 3-day). In kind it is cell-based, human. The following applies: Homo sapiens, NCI-H358, 72 h, NCI-H358, 72 hrs incubation. The protocol:
as §1, §2

A further assay relates to SW620 cells (KRAS G12V). The assay is described as follows: Cell viability assay (Cell Counting Kit-8, 3-day). The assay is classed as cell-based, human. The following applies: Homo sapiens, SW-620; SW620, 72 hrs incubation. The protocol: as §1, §2
The subject of assay [2] is phosphorylation of ERK, KRAS G12C in NCI-H358 cells. The assay is described as follows: pERK inhibition assay. The assay is classed as cell-based. Particulars: Homo sapiens, NCI-H358, 4 h. As to the method: (§3) This assay is to measure the ability of test compounds in inhibiting the phosphorylation of ERK, the downstream signaling of KRAS G12C in NCI-H358 cells, KRAS G12D in AGS cells, and KRAS G12V in SW620. NCI-H358 (ATCC-CRL5807) cells, AGS (ATCC-CRL-1739) cells, SW620 (ATCC-CCL-227) cells were all grown and maintained using RPMI-1640 medium (Thermo Fisher Scientific) with 10% fetal bovine serum and 1% penicillin/streptomycin. On the day prior to compound addition, cells were plated in tissue culture-treated 96 well plates (Corning-3699) at a density of 30,000 cell/well, 20,000 cell/well, 30,000 cell/well for NCI-H358, AGS and SW620 respectively, and allowed for attachment overnight. Diluted compounds were then added in a final concentration of 0.5% DMSO. After 4 hours of incubation, the medium was removed, 100 μL of 4% formaldehyde was added, and the assay plates were incubated at room temperature for 20 minutes. The plates were then washed once with phosphate buffered saline (PBS), and permeabilized with 100 μL of chilled methanol for 10 minutes. Non-specific antibody binding to the plates was blocked using 50 μL 1X BSA blocking buffer (Thermo-37520, 10-fold dilution by Phosphate-Buffered Saline Tween (PBST) for at least 1 hour at room temperature.
(§4) The amount of phosphor-ERK was determined using an antibody specific for phosphorylated form of ERK. Primary antibody (PERK, CST-4370, Cell Signaling Technology) was diluted 1:300 in blocking buffer, with 50 μL aliquoted to each well, and incubated overnight at 4° C. Cells was washed five times for 5 minutes with PBST. Secondary antibody (HRP-linked anti-rabbit IgG, CST-7074, Cell Signaling Technology) was diluted 1:1000 in blocking buffer, and 50 μL was added to each well and incubated 1-2 hrs at room temperature. Cells was washed […] for 5 minutes with PBST, 100 μL TMB ELISA substrate (abcam-ab171523) were added and gently shake for 20 minutes. 50 μL stop solution (abcam-ab 171529) were added, and then read the signal (OD450) by EnVision.
(§5) IC50 was determined by fitting a 4-parameter sigmoidal concentration response model.

For assay [3], the system named is phosphorylation of ERK, KRAS G12D in AGS cells. In words: pERK inhibition assay. The assay is classed as cell-based. Particulars: Homo sapiens, AGS, 4 h. The protocol: as §3, §4, §5
Assay [4] concerns phosphorylation of ERK, KRAS G12V in SW620. The assay is described as follows: pERK inhibition assay. Particulars: Homo sapiens, SW-620, 4 h, SW620 cells. In kind it is cell-based. The protocol: as §3, §4, §5

pIC50: −log10 of the molar value.

In general, pIC50 refers to −log10 of the IC50, conventionally taken in molar units. A lower pIC50 goes with a high IC50. Regarding `CO[C@@H](C)c1ncc(N2CCOCC2)cc1-c1c2c3cc(cc4c3n1CC(F)(F)C4)-c1csc(n1)C[C@H](NC(=O)[C@H]1C[C@@H]1c1ccccc1)C(=O)N1CCC[C@H](N1)C(=O)OCC(C)(C)C2` (atropisomer, axis not shown; (M)) [Example 79, (1S,2S)-N-[(7S,13S)-23,23-difluoro-(20M)-20-[2-[(1S)-1-methoxyethyl]-5-morpholino-3-pyridyl]-17,17-dimethyl-8,14-dioxo-15-oxa-4-thia-9,21,30,31-tetrazahexacyclo[23.3.1.1^2,5.1^9,13.0^19,27.0^21,26]hentriaconta-1 (28),2,5 (31),19,25 (29),26-hexaen-7-yl]-2-phenyl-cyclopropanecarboxamide], the pIC50 was 7.24 in the assay on AGS cells (KRAS G12D); 7.88 in assay [1]; 8.49 with SW620 cells (KRAS G12V); 8.80 in assay [2]; 7.79 in assay [3]; 8.85 in assay [4].

`CO[C@@H](C)c1ncc(N2CCN(C)CC2)cc1-c1c2c3cc(cc4c3n1CCC4)-c1csc(n1)C[C@H](NC(=O)C1(C)CC1(F)F)C(=O)N1CCC[C@H](N1)C(=O)OCC(C)(C)C2` (stereo partly drawn) [Example 19, 2,2-difluoro-N-[(7S,13S)-(20M)-20-[2-[(1S)-1-methoxyethyl]-5-(4-methylpiperazin-1-yl)-3-pyridyl]-17,17-dimethyl-8,14-dioxo-15-oxa-4-thia-9,21,30,31-tetrazahexacyclo[23.3.1.1^2,5.1^9,13.0^19,27.0^21,26]hentriaconta-1 (28),2,5 (31),19,25 (29),26-hexaen-7-yl]-1-methyl-cyclopropanecarboxamide]: the pIC50 in the assay on AGS cells (KRAS G12D) was 7.01; in assay [1], 7.77; in the assay on SW620 cells (KRAS G12V) it was 8.42; in assay [2], 8.72; in assay [3], 7.68; in assay [4] it was 8.57.

For `CO[C@@H](C)c1ncc(N2CCN(C)CC2)cc1-c1c2c3cc(cc4c3n1CCC4)-c1csc(n1)C[C@H](NC(=O)[C@@H]1C[C@H]1c1ccccc1F)C(=O)N1CCC[C@H](N1)C(=O)OCC(C)(C)C2` [Example 28, (1R,2R)-2-(2-fluorophenyl)-N-[(7S,13S)-(20M)-20-[2-[(1S)-1-methoxyethyl]-5-(4-methylpiperazin-1-yl)-3-pyridyl]-17,17-dimethyl-8,14-dioxo-15-oxa-4-thia-9,21,30,31-tetrazahexacyclo[23.3.1.1^2,5.1^9,13.0^19,27.0^21,26]hentriaconta-1 (28),2,5 (31),19,25 (29),26-hexaen-7-yl]cyclopropanecarboxamide], the pIC50 with AGS cells (KRAS G12D) is 7.65; in assay [1], 8.15; with SW620 cells (KRAS G12V), 8.82; in assay [2], 8.92; in assay [3] it was 8.03; in assay [4], 8.89.

`CO[C@@H](C)c1ncc(N2CCN(C)CC2)cc1-c1c2c3cc(cc4c3n1CCC4)-c1csc(n1)C[C@H](NC(=O)[C@H]1C[C@@H]1c1ccccc1F)C(=O)N1CCC[C@H](N1)C(=O)OCC(C)(C)C2` [Example 29, (1S,2S)-2-(2-fluorophenyl)-N-[(7S,13S)-(20M)-20-[2-[(1S)-1-methoxyethyl]-5-(4-methylpiperazin-1-yl)-3-pyridyl]-17,17-dimethyl-8,14-dioxo-15-oxa-4-thia-9,21,30,31-tetrazahexacyclo[23.3.1.1^2,5.1^9,13.0^19,27.0^21,26]hentriaconta-1 (28),2,5 (31),19,25 (29),26-hexaen-7-yl]cyclopropanecarboxamide]: the pIC50 is 7.94 in the assay with AGS cells (KRAS G12D); 8.60 in assay [1]; 9.10 in the assay with SW620 cells (KRAS G12V); > 9.22 in assay [2]; 8.80 in assay [3]; > 9.22 in assay [4].

Take `CO[C@@H](C)c1ncc(N2CCN(C)CC2)cc1-c1c2c3cc(cc4c3n1CCC4)-c1csc(n1)C[C@H](NC(=O)[C@H]1C[C@@H]1c1ccncc1)C(=O)N1CCC[C@H](N1)C(=O)OCC(C)(C)C2` [Example 57, (1S,2S)-N-[(7S,13S)-(20M)-20-[2-[(1S)-1-methoxyethyl]-5-(4-methylpiperazin-1-yl)-3-pyridyl]-17,17-dimethyl-8,14-dioxo-15-oxa-4-thia-9,21,30,31-tetrazahexacyclo[23.3.1.1^2,5.1^9,13.0^19,27.0^21,26]hentriaconta-1 (28),2,5 (31), 19,25 (29),26-hexaen-7-yl]-2-(4-pyridyl)cyclopropanecarboxamide]: the pIC50 with AGS cells (KRAS G12D) is 7.56; in assay [1] it was 8.27; with SW620 cells (KRAS G12V) it was 8.82; in assay [2], 8.96; in assay [3] it was 8.21; in assay [4] it was 8.89.

Consider `CO[C@@H](C)c1ncc(N2CCN(C)CC2)cc1-c1c2c3cc(cc4c3n1CCC4)-c1csc(n1)C[C@H](NC(=O)[C@@H]1C[C@H]1c1ccncc1)C(=O)N1CCC[C@H](N1)C(=O)OCC(C)(C)C2` [Example 58, (1R,2R)-N-[(7S,13S)-(20M)-20-[2-[(1S)-1-methoxyethyl]-5-(4-methylpiperazin-1-yl)-3-pyridyl]-17,17-dimethyl-8,14-dioxo-15-oxa-4-thia-9,21,30,31-tetrazahexacyclo[23.3.1.1^2,5.1^9,13.0^19,27.0^21,26]hentriaconta-1 (28),2,5 (31),19,25 (29),26-hexaen-7-yl]-2-(4-pyridyl)cyclopropanecarboxamide], for which the pIC50 in the assay with AGS cells (KRAS G12D) was 7.41; in assay [1], 8.12; with SW620 cells (KRAS G12V), 8.70; in assay [2], 8.19; in assay [3] it was 7.69; in assay [4], 8.31.

With `CO[C@@H](C)c1ncc(N2CCOCC2)cc1-c1c2c3cc(cc4c3n1C(C)(C)CC4)-c1csc(n1)C[C@H](NC(=O)[C@H]1C[C@@H]1C)C(=O)N1CCC[C@H](N1)C(=O)OCC(C)(C)C2` [Example 125, (1S,2S)-N-[(7S,13S)-(20M)-20-[2-[(1S)-1-methoxyethyl]-5-morpholino-3-pyridyl]-17,17,22,22-tetramethyl-8,14-dioxo-15-oxa-4-thia-9,21,30,31-tetrazahexacyclo[23.3.1.1^2,5.1^9,13.0^19,27.0^21,26]hentriaconta-1 (29),2,5 (31),19,25,27-hexaen-7-yl]-2-methyl-cyclopropanecarboxamide], the pIC50 is 5.33 in the assay on AGS cells (KRAS G12D); 5.96 in assay [1]; 6.68 in the assay on SW620 cells (KRAS G12V); 6.52 in assay [2]; 6.32 in assay [3]; 7.08 in assay [4].

As for `CO[C@@H](C)c1ncc(N2CCOCC2)cc1-c1c2c3cc(cc4c3n1CCCC4)-c1csc(n1)C[C@H](NC(=O)[C@H]1[C@H](C)[C@@H]1C)C(=O)N1CCC[C@H](N1)C(=O)OCC(C)(C)C2` [Example 126, (1r,2R,3S)-N-[(7S,13S)-(20M)-20-[2-[(1S)-1-methoxyethyl]-5-morpholino-3-pyridyl]-17,17-dimethyl-8,14-dioxo-15-oxa-4-thia-9,21,31,32-tetrazahexacyclo[24.3.1.1^2,5.1^9,13.0^19,28.0^19,28.0^21,27]dotriaconta-1 (29),2,5 (32),19,26 (30),27-hexaen-7-yl]-2,3-dimethyl-cyclopropanecarboxamide], the pIC50 in the assay on AGS cells (KRAS G12D) was 6.12; in assay [1] it was 7.40; in the assay with SW620 cells (KRAS G12V), 8.15; in assay [2], 8.30; in assay [3] it was 7.30; in assay [4] it was 8.52.
